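Method: 48-hour compound exposure of cells in 96-well plates, five concentrations, linear interpolation of endpoints. Here, GI50 denotes the concentration required for 50% inhibition of growth. TGI is the concentration that stops growth completely.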 Where a SMILES comes first, the peptide text is derived from it. [ ]: non-standard residue; d: D form. The star is where a group is joined. NMeF = CN[CH](Cc1ccccc1)C(=O)O; NMeV = CN[CH](C(=O)O)C(C)C; Boc = CC(C)(C)OC(=O)*; OBn = c1ccc(CO*)cc1
Experiments:
Assay in all cases: NCI tumour cell line growth inhibition, 48 h
[1] = test system: OVCAR-8 ovarian
[2] = test system: SF-539 CNS
[3] = test system: IGROV1 ovarian
[4] = test system: HOP-62 NSCLC
[5] = test system: SK-OV-3 ovarian
[6] = test system: MALME-3M melanoma
[7] = test system: HCC-2998 colon
[8] = test system: MCF7 breast
[9] = test system: HS 578T breast
[10] = test system: NCI/ADR-RES ovarian

SMILES	TGI [1] [µM]	TGI [2] [µM]	TGI [3] [µM]	TGI [4] [µM]	TGI [5] [µM]	TGI [6] [µM]	TGI [7] [µM]	TGI [8] [µM]	TGI [9] [µM]	TGI [10] [µM]	GI50 [1] [µM]	GI50 [2] [µM]	GI50 [3] [µM]	GI50 [4] [µM]	GI50 [5] [µM]	GI50 [6] [µM]	GI50 [7] [µM]	GI50 [8] [µM]	GI50 [10] [µM]	GI50 [9] [µM]
CSC(=S)N(C)NC(=O)c1cccc(C(=O)NN(C)C(=S)SC)n1	> 100	70.1	49.9	37.3																
CNC1=C(C)C(=O)C(C)=C(C(C)(C)CC(=O)n2cc(F)c(=O)[nH]c2=O)C1=O	> 100	> 100	> 100	> 53.8	> 100	> 100	> 100													
CN(C)c1nc(N(C)C)nc(N(C)CN(C)c2nc(N(C)C)nc(N(C)C)n2)n1	> 100	> 100	> 100	> 100	> 100	> 100	> 100													
COc1ccc(S(=O)(=O)O)cc1NS(=O)(=O)c1ccc(C)cc1	> 100	> 100	> 100	> 100	> 100			> 100	> 100	> 100										
COc1cc(NCC(C#N)C#N)ccc1N=Nc1ccc([N+](=O)[O-])cc1	> 100	> 100	> 100	> 100	> 100	> 100	> 100													
CC1SC2=NC3=C(c4ccccc4C3=O)C(c3ccc(Br)cc3)N2C1=O (stereo not given)	> 100		> 100	> 100	> 100	> 100	> 100													
O=C1c2cnccc2Cc2cccc3c2N1c1ccccc1S3		43.3	98.9	57.2		62.4	41													
O=C1C2Cc3ccccc3CN2C(=O)N1CN1CCN(CN2C(=O)C3Cc4ccccc4CN3C2=O)CC1 (stereo not given)	> 100	> 100	> 100	> 100	> 100	> 100	> 100													
OCCc1cnco1	> 100	> 100	> 100	> 100	> 100		> 100													
CCC[CH2][Sn]1([CH2]CCC)[O]C(=O)C[S]1	5.46	3.43	4.16	18	14	2.52	3.97				2.11	1.64	1.86	6.86	4.63	1.14	1.83			
COc1ccc(CNc2nc3ccccc3nc2-c2cccs2)cc1OC	> 100	> 100		> 100		> 100	> 100													
O=C1C=C(N2CC2)c2ccccc2C1=O	2.86	3.34	3.23	3.13	3.41	3.39	3.86	3.76		5.83	1.46	1.83	1.79	1.74	1.92	1.93	1.76	1.48	1.94	
CC(C)C(NC(=O)OC(C)(C)C)C(=O)N(C)C(Cc1ccccc1)C(=O)N(C)C(C(=O)N(C)C(C(=O)OCc1ccccc1)C(C)C)C(C)C (stereo not given) (Boc-V[NMeF][NMeV][NMeV]-OBn; configuration not given here)	> 100	> 100	> 100	> 100		> 100	> 100													
O=S(=O)(NC(=S)Nc1ccccc1)c1ccc(N2N=C3c4ccccc4CC3C2c2ccc(Cl)cc2)cc1 (stereo not given)	71.1	45.7	49.3	> 100	> 100			54.3	68.2		26.8	24.2	20.2	41.3	40.7			23.5		30
CCOC(=O)CNC(SC)=C(C#N)C#N	> 100	> 100	> 100	> 100	> 100	> 100	> 100													
N/C(=N\OC(=O)NC(Cl)=C(Cl)Cl)c1cc(C(F)(F)F)cc(C(F)(F)F)c1	40.6	29.9	66	34.2	84.4	48.6	25.8	> 100		47.2										
O=C1c2c(c3c4ccccc4n4c3c3c2c2ccccc2n3C/C=C\C4)C(=O)N1Cc1ccccc1	> 100	> 100	> 100	> 100	> 100	> 100	> 100													
Cn1c(=O)c(C(c2ccccc2)c2c(O)c3ccccc3n(C)c2=O)c(O)c2ccccc21	> 100	> 100	> 100		> 100	> 100	> 100													
CC(=O)OCCC/C(=C\c1ccc2ccccc2c1)[N+](=O)[O-]	5.09	3.32	3.98	4.09	18.5	4.9	3.32		5.19	8.67	2.06	1.76	1.89	2	5.26	1.91	1.73		2.69	1.09
CSc1nc2c(nc(N)n2C2OCC(O)C(O)C2O)c(=O)[nH]1 (stereo not given)	> 100	> 100	> 100	> 100	> 100	> 100	> 100													
C#CCOCn1cnc2ncnc(Cl)c21	> 100	> 100	> 100	> 100	> 100	> 100	> 100													
O=C(N/C(=C\c1ccc([N+](=O)[O-])cc1)c1nc2[nH]c(=S)[nH]c(=O)c2[nH]1)c1ccccc1	> 100	> 100	> 100		> 100	> 100	> 100													
O=C1Cc2ccccc2N1/N=C\c1ccc(O)cc1	> 100	> 100	> 100	> 100	> 100	> 100	> 100													
C(=C1\CCC/C(=C/c2ccccc2)C1=NNc1ccccc1)/c1ccccc1	> 100	> 100	> 100	> 100	> 100	> 100	> 100													

Reference: PubChem BioAssay (NCI)
